# Assay results taken from PMC5035034, “Carbohydrate-Binding Non-Peptidic Pradimicins for the Treatment of Acute Sleeping Sickness in Murine Models” (PLoS Pathogens, 2016).
# Molecular target: T1, VSG221 (variant surface glycoprotein 221, MITat 1.2) (Trypanosoma brucei, UniProt P26332)
# T1 construct: soluble form VSG (sVSG) purified from parental bloodstream forms, N-glycosylated (Asn263, Asn428)
# Assay: SPR (Biacore T200) on immobilized VSG221, […]; supported by HHA-FITC and CV-N-FITC competition on live parasites
# Format: binding
structure (smiles),measurement,value
"CN[C@@H]1[C@H](O[C@@H]2O[C@H](CO)[C@@H](O)[C@H](OS(=O)(=O)O)[C@H]2O)[C@@H](O)[C@H](O[C@H]2c3cc(C)c(C(=O)N[C@H](C)C(=O)O)c(O)c3-c3c(cc4c(c3O)C(=O)c3cc(OC)cc(O)c3C4=O)[C@@H]2O)O[C@@H]1C [PRM-S, pradimicin S]","SPR (Biacore T200) on immobilized VSG221, 1.56 to 50 uM; supported by HHA-FITC a",A significant concentration-dependent binding to the parental Tb BSF VSG221-bound sensorchip was observed
